# According to patent US20230317203A1, “SCREENING METHOD” (University of Leeds, priority 2022, published 2023):
# How the values were obtained:
# BRISC Abraxas2 Thr140Ala = BRISC Abraxas2 Thr140Ala (Homo sapiens, UniProt P46736+Q15018+Q9NXR7, T140A); assay: IQF DUB assay, BRISC mutant Abraxas2 Thr140Ala; format: biochemical; conditions: FIG. 4B
# Protocol: (§1) The four-subunit human BRISC (full-length (FL) and MERIT40ΔN, Abraxas2ΔC) complex was cloned using the MultiBac system and co-expressed in Spodoptera frugiperda (Sf9) insect cells^32. BRISC mutants were cloned into pFastBac vectors in the Bac-to-Bac system (ThermoFisher), baculoviruses generated in Sf9 cells and used for co-infection of Trichoplusia ni (Tni) cells. All BRISC complexes were purified as previously described^12,13.
# (§2) BRISC complexes were tested for activity in DUB reaction buffer containing 50 mM HEPES-NaOH pH 7.0, 100 mM NaCl, 0.1 mg/mL BSA, 1 mM DTT, and 0.003% Brij-35. […] Inhibitors were assayed at concentrations up to 200 μM. […] DUB activity was measured using internally quenched fluorescent (IQF) K63-linked diUb (Lifesensors, catalogue number: DU6303) at 50 or 100 nM. Cleaved diUb was monitored by measuring fluorescence intensity (Ex. 540 nm, Em. 580 nm; dichroic mirror 560 nm). Fluorescence intensity was measured every minute for 30 minutes at 30° C. Fluorescence intensity units for the first 10 minutes were plotted against time to generate a linear reaction progress curve, where the initial velocity (v0) corresponds to the gradient of the curve. IC50 values were calculated using the GraphPad Prism (v8.0) built-in dose-response equation for inhibitor concentration vs. response (variable slope). […]
# BRISC BRCC36 Trp130Ala = BRISC BRCC36 Trp130Ala (Homo sapiens, UniProt P46736+Q15018+Q9NXR7, W130A); assay: IQF DUB assay, BRISC mutant BRCC36 Trp130Ala; format: biochemical; conditions: FIG. 4B
# Protocol: as §1, §2
# BRISC [1] = target: T1, BRISC (Homo sapiens, UniProt P46736+Q15018+Q9NXR7); assay: Mass photometry of BRISC oligomeric state; format: binding; conditions: purified BRISC mixed with inhibitor, FIG. 2B
# Protocol: (§3) Microscope coverslips were prepared as previously described^33. All mass photometry experiments were performed using a One^MP mass photometer (Refeyn Ltd, Oxford, UK). For preliminary BRISC-inhibitor measurements, 1 μM BRISC(FL) was mixed with either DMSO or inhibitor at 330 μM and incubated for 15 minutes on ice. Prior to MP measurement, the BRISC-inhibitor mix was diluted in gel filtration buffer (25 mM HEPES, 150 mM NaCl, 1 mM TCEP) for a final concentration of BRISC at 10 nM (0.05% DMSO). 12 μL of this dilution was used for the final MP measurement, following autofocus stabilisation. […] The BRISC-inhibitor mix was used directly for MP measurement using buffer-free autofocus stabilisation. Movies were recorded for 60 seconds using AcquireMP (Refeyn, UK), and were processed using DiscoverMP (Refeyn, UK). Mass photometry image processing has been previously described^33. Briefly, contrast-to-mass (C2M) calibration was performed using protein standards (66-669 kDa) diluted in gel filtration buffer. […] The mass distribution from each run is in a histogram, where count refers to each landing event and a Gaussian sum is fitted to the data. The relative amount of each species is calculated as the area of each Gaussian, where a refers to the standard deviation of the fitted Gaussian. […] Curves were fitted and EC50 values were calculated using the GraphPad Prism (v8.0) built-in dose-response equation for concentration of agonist vs. response (variable slope).
# BRISC [2] = assay: Mass photometry of BRISC oligomeric state; format: binding, human; conditions: mass photometry
# Protocol: as §3
# BRISC [3] = target: T1, BRISC; assay: IQF K63-linked diUb DUB activity assay, BRISC; format: biochemical; parameters: made in house; host or cells: Spodoptera frugiperda (Sf9) insect cells; conditions: IQF assay, fluorescent di-ubiquitin substrate, FIG. 1F
# Protocol: BRISC complexes were tested for activity in DUB reaction buffer containing 50 mM HEPES-NaOH pH 7.0, 100 mM NaCl, 0.1 mg/mL BSA, 1 mM DTT, and 0.003% Brij-35. […] Inhibitors were assayed at concentrations up to 200 μM. 20 μL enzyme reactions were carried out in 384-well black flat-bottom low flange plates (Corning; 35373). DUB activity was measured using internally quenched fluorescent (IQF) K63-linked diUb (Lifesensors, catalogue number: DU6303) at 50 or 100 nM. Cleaved diUb was monitored by measuring fluorescence intensity (Ex. 540 nm, Em. 580 nm; dichroic mirror 560 nm). Fluorescence intensity was measured every minute for 30 minutes at 30° C. Fluorescence intensity units for the first 10 minutes were plotted against time to generate a linear reaction progress curve, where the initial velocity (v0) corresponds to the gradient of the curve. IC50 values were calculated using the GraphPad Prism (v8.0) built-in dose-response equation for inhibitor concentration vs. response (variable slope).
# A high throughput biochemical screen was designed to identify inhibitors of BRISC, based on the ability of small molecules to inhibit BRISC cleavage of a K63-linked di-ubiquitin substrate. The di-ubiquitin substrate is designed with a fluorescent TAMRA dye on the proximal ubiquitin moiety and fluorescence quencher on the distal ubiquitin molecule (FIG. 1A). Upon isopeptidase bond cleavage, fluorescence is detected, enabling continuous fluorescent readout of deubiquitylase activity over time (FIG. 1A). The assay conditions were optimised and used to test an in-house compound library comprising of ˜300 published and custom-made kinase inhibitors. From this screen, two hits were identified, compounds AT7519 (well H20) and YM201636 (well P12) (FIG. 1B). The specificity of these compounds was assessed against the broad-spectrum DUB ubiquitin-specific protease-2 (USP2) and the serine protease trypsin which cleave K63-Ub substrate under the same conditions. […] UV-Vis spectroscopy analyses of the compound in well H20 used in the screen compared to the Synkinase and Sellechem AT7519 compounds identified an additional peak in the H20 spectra (FIG. 5C). […] The synthesis of the two isomers was confirmed using mass spectrometry fragmentation analyses (FIG. 5E) and the inhibitory effect of the isomers was tested against BRISC.
smiles,measurement,setting,value
O=C(NC1C2CNCC21)c1nn(C(=O)c2c(Cl)cccc2Cl)cc1NC(=O)c1c(Cl)cccc1Cl (stereo not drawn) [FX-171-C],IC50 higher than BRISC WT,BRISC Abraxas2 Thr140Ala,10 fold
same,inhibitor sensitivity of mutant,BRISC BRCC36 Trp130Ala,severely affected
same,"mass photometry counts, 1:1:1:1 complex",BRISC [1],13%
same,"mass photometry counts, dimer",BRISC [1],52%
same,dimer formation at increasing inhibitor concentration,BRISC [2],dose-dependent increase in dimer formation
same,IC50 compared to JMS-175-2,BRISC [3],slightly improved
